The text below walks through data of article PMC10940318, “Targeted intracellular delivery of dimeric STINGa by two pHLIP peptides for treatment of solid tumors” (Frontiers in Pharmacology, 2024).

The nature of series [1]: Blood clearance (PK) by whole blood fluorescence imaging. The format is in vivo, Balb/c mice. How it is done: For biodistribution studies 5 × 10^4 of CT26 cancer cells were injected SQ in 100 µL of growth medium into the right flank of female Balb/c mice and tumors were grown until they reached 150–250 mm^3 in volume. Then a single retro-orbital (RO) injection of 50 μM 100 μL of 2(ICG-pHLIP)-dMSA was performed. Animals were euthanized at 5 min, 1, 4, 24, 48, 72, and 120 h post-injection, blood was collected in K2 EDTA vacutainer blood collection tubes (BD), and necropsy was performed immediately after animals were euthanized. Blood, tumors and major organs (kidney, liver, spleen, pancreas, lung, heart, large and small intestines, bone, muscle, brain) were collected, and imaged ex vivo immediately after necropsy. Blood (200 µL) was imaged in 96-well plates with black bottom and walls.
The in vivo and ex vivo bright field and near-infrared fluorescent imaging employed a Stryker 1588 AIM endoscopic system with L10 AIM Light Source (808 nm excitation and collection of light in the range of approximately of 815–850 nm), and a 1588 AIM Camera using a 10 mm scope. The lens was kept at a fixed distance from the surface of the organs, within an enclosed (light-protected) area. Calibration curves converting laser and gain settings were established by imaging of pHLIP-ICG solution at different concentrations. The ex vivo fluorescence imaging of tissue specimens was performed using three different laser settings and six different gain settings. The digital fluorescence images were split into RGB channels, with the green channel being analyzed using ImageJ program to calculate the average fluorescence intensity. All average intensities were adjusted based on their capture settings and using calibration curves to present fluorescence intensities corresponding to the unified (the same) settings.

Series [2] can be described thus: pH-dependent insertion into POPC liposome bilayer monitored by CD. Conditions: CD ellipticity vs pH, 7 µM agent, 1.4 mM POPC, 25°C, Henderson-Hasselbalch fit. The format is physicochemical. How it is done:
The interactions of pHLIP-mMSA and 2pHLIP-dMSA with liposomes were investigated by recording the construct’s fluorescence and circular dichroism (CD) using a PC1 spectrofluorometer (ISS) and a MOS-450 spectrometer (Bio-Logic Science Instruments), respectively, with temperature control set to 25°C. Liposomes, constituting of large unilamellar vesicles were prepared by extrusion. 1-palmitoyl-2-oleoyl-sn-glycero-3-phosphocholine (POPC) lipids (Avanti Polar Lipids) in chloroform were desolvated on a rotary evaporator and dried under vacuum for a minimum of 2 h. The phospholipid film was rehydrated in 2 mM citrate phosphate buffer, pH 7.4, vortexed, and passed through the extruder (using a 50 nm membrane pore size) 21 times.
Fluorescence spectra were recorded from 310 nm to 390 nm at an excitation wavelength of 295 nm and 1.0 mm sized slits. […] CD spectra were recorded from 190 to 260 nm with a step size of 1 nm. […]
The pH-dependent insertion of pHLIP-mMSA or 2pHLIP-dMSA into the lipid bilayer of POPC liposomes was studied by monitoring changes in the molar ellipticity as a function of pH. After the addition of aliquots of citric acid, the pHs of solutions containing pHLIP-mMSA/2pHLIP-dMSA and POPC liposomes were measured using an Orion PerHecT ROSS Combination pH Micro Electrode and an Orion Dual Star pH and ISE Benchtop Meter. […]

Series [3] relates to CT26 tumors. Nature of the series: Cytokine levels in tumor and serum by ELISA. The format is in vivo, Balb/c mice. How it is done: To establish levels of cytokines in blood and tumor samples, 5 × 10^4 CT26 cancer cells were injected SQ in 100 µL of growth medium into the right flank of female Balb/c mice. When tumors reached 250–500 mm^3 in volume, the mice received a single IP injection of 300 μM 500 µL 2pHLIP-dMSA or no injections. Animals were euthanized at 6- and 24-h post-injection, blood and tumors were collected. Blood samples were kept for 40 min at RT, centrifuged at 5,000 g for 20 min at +4°C and supernatant (serum) was collected. Tumors were frozen in liquid nitrogen. Both the serum and the tumor tissue samples were kept at −80°C until further processing and analysis. The tumor samples were processed while on ice, using a bullet blender (Next Advance) with 1 mm diameter zirconium silicate beads (Next Advance). The supernatant of the processed tumors was used for enzyme-linked immunoassay (ELISA) assays. Matched antibody pair kits for mouse TNF alpha (Sino Biological), mouse IL-6 (Abcam), mouse IFN gamma (Invitrogen), mouse IFN beta (Bio-Techne), and a precoated mouse IFN alpha kit (Invitrogen) were used. For TNF alpha and IFN beta the capture antibodies were diluted in PBS (Cytiva), while the IL-6 and IFN gamma capture antibodies were diluted in their respective coating buffers. The diluted capture antibodies were incubated in the plates overnight at +4°C and washed the next day with PBS/Tween washing buffer (Sigma-Aldrich). The TNF alpha plate was blocked using 2% BSA (Thermo-Scientific) diluted in washing buffer, the IFN beta plate was blocked using 1% BSA diluted in PBS, while the IFN alpha, IFN gamma, and IL-6 plates were blocked using their respective dilution buffers. Blocking was done for 2 h at RT on an orbital shaker at 200 rpm. After blocking, the plates were washed and then incubated with the diluted tumor and serum samples along with the corresponding standard solutions for each ELISA kit. The samples were incubated for 2 h at RT on an orbital shaker at 200 rpm. The TNF alpha plate was incubated for 1 h at RT with a diluted detection antibody conjugated with horseradish peroxidase (HRP). The IL-6, IFN alpha, IFN beta, and IFN gamma plates were incubated for 1 h at RT with a diluted detection antibody conjugated with biotin followed by incubation for 1 h at RT with their respective diluted HRP-streptavidin conjugates. All plates were washed and incubated with 3,3′,5,5′-tetramethylbenzidine (TMB) (Invitrogen) and peroxide solution mixed at a ratio of 1:1 (Thermo Scientific) for up to 20 min, then a stop solution (10% H2SO4) was added to the plates. The signal from the wells was quantified by absorbance measured at 450 nm using a Bio-Rad iMark microplate reader. Antibody standards were used to plot calibration curves.

The mark [4] stands for this setting: single IP injection 300 µM 500 µL, 6 and 24 h.

On to “ADQDNPWRAYLDLLFPTDTLLLDLLWCG [2pHLIP-dMSA]”, for which the “circulation in the blood” value in series [1] (mice, stated in discussion) was 1 to 2 days. The same sequence showed a blood clearance half-life in series [1] (single RO injection of 2(ICG-pHLIP)-dMSA 50 µM 100 µL, CT26 tumor-bearing female Balb/c mice, whole blood fluorescence, exponential fit) greater than 30 h. Further, in series [2], the “cooperativity (n) of insertion into POPC bilayer” value was 1.2 and the “pK (mid-point) of insertion into POPC bilayer” value is reported as 6.0. In series [3] (6 h after single IP injection 300 µM 500 µL, returned to normal at 24 h), the “IL-6 level in blood (Figure 4D, in words)” value is given as “slight increase”. For the same sequence, the “increase of TNF-α level in tumors” value in series [3] (6 h after single IP injection 300 µM 500 µL, vs untreated mice) is given as 23 fold. Moreover, the “TNF-α level in tumors (in words)” value in series [3] (24 h after single IP injection 300 µM 500 µL) was “fell to a normal level”. Further, in series [3] (setting [4]), the “level of IFN-α in tumors and serum (in words)” value is “did not change much”; the “level of IFN-γ in tumors and serum (in words)” value is reported as “did not change much”. The “TNF-α level in serum (in words)” value in series [3] (single IP injection 300 µM 500 µL, treated and untreated mice) is given as “insignificant”. Besides, the “IFN-β level in serum (in words)” value in series [3] (single IP injection 300 µM 500 µL, two orders of magnitude lower than in tumors) is “slight increase”. The “increase of tumor level of IFN-β” value in series [3] (single IP injection 300 µM 500 µL, vs untreated mice) is listed as 8 fold.
